Measurements as given in patent US20180168208A1 (priority 2014, published 2018).
Where a name gives a salt, the structure may show the parent alone. Read-outs that look alike come from different tables or passages of the source.

Legend:
cat T1R1/T1R3 receptor = target: T1, cat T1R1/T1R3 receptor (Felis catus, UniProt A0ABI7Z2I4); assay: cell-based
T1 sequence (A0ABI7Z2I4 171-420): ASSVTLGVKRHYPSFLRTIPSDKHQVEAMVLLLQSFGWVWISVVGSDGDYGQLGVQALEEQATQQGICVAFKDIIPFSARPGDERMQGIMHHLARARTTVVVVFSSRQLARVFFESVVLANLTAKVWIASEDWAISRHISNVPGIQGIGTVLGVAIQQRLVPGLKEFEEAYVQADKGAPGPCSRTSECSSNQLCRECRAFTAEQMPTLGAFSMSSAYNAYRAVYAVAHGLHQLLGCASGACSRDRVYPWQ
T1 sequence (Q49KI5 25-865 E206Q/N523D/F654L partner): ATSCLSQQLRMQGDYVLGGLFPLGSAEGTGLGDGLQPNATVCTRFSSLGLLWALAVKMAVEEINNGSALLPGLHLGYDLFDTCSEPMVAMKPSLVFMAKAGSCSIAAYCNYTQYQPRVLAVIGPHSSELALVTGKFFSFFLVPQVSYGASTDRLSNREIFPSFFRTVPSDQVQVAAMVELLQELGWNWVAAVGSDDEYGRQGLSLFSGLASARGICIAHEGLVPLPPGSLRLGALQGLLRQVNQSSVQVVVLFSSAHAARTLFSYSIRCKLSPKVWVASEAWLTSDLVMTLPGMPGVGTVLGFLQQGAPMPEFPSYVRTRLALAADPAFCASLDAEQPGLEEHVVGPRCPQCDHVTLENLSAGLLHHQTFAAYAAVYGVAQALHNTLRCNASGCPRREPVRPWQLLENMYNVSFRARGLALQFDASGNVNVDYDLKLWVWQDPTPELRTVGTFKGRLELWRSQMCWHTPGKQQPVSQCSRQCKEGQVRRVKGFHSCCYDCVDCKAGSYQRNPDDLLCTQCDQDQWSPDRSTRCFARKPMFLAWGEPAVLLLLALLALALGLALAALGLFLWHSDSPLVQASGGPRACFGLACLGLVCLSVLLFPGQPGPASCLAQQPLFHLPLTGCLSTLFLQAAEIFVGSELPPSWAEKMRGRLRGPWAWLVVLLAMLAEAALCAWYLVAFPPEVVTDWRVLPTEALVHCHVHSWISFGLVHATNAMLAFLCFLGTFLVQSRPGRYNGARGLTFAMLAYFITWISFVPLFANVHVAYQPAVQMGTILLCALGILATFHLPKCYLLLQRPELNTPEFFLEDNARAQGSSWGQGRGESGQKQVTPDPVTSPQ
Description: HEK293 cells that stably express T1R3 and inducibly express T1R1 were exposed to nucleotide derivatives alone or in combination with one or more amino acids and/or one or more nucleotides to activate the umami receptor. Activation of the T1R1/T1R3 receptor was detected by a change in intracellular calcium levels using a calcium sensitive fluorescent dye and/or a luminescent reporter system. Cells that express T1R3 but not T1R1 were used as a control. A FLIPR® Tetra or a FlexStation® 3 was used for data capture.

T1R1/T1R3 receptor = T1R1/T1R3 receptor (Felis catus, UniProt E3UMS2); assay: cell-based; type: cell-based
Description: HEK293 cells that stably express T1R3 and inducibly express T1R1 were exposed to transmembrane compounds alone or in combination with one or more amino acids and/or one or more nucleotides to activate the umami receptor. Activation of the T1R1/T1R3 receptor was detected by a change in intracellular calcium levels using a calcium sensitive fluorescent dye. Cells that express T1R3 but not T1R1 were used as a control. A FLIPR® Tetra or a FlexStation® 3 was used for data capture.
In each experiment, serial dilutions of up to 10 mM of the transmembrane compound were added to the T1R1/T1R3-expressing cells.

[1] = +Alanine (20 mM), Table 18, read-out: EC50 +Alanine
[2] = EC50 + IMP, + IMP (0.2 mM), Table 17
[3] = EC50 +Alanine + IMP, +Alanine (20 mM) + IMP (0.2 mM), Table 18
[4] = EC50 +IMP, +IMP (0.2 mM), Table 18
[5] = compound alone in buffer, Table 17, read-out: EC50 + buffer (alone)
[6] = compound alone in buffer, Table 18, read-out: EC50 +buffer (alone)

Compound	EC50 (cat T1R1/T1R3 receptor) [µM]	Threshold (cat T1R1/T1R3 receptor) [mM]	Activity (cat T1R1/T1R3 receptor)	Max resp % of ALa + IMP (T1R1/T1R3 receptor; + IMP (0.2 mM), Table 17)	Thres + IMP (T1R1/T1R3 receptor; + IMP (0.2 mM), Table 17) [mM]	Max resp % of Ala +IMP (T1R1/T1R3 receptor; +IMP (0.2 mM), Table 18)	Max resp ΔF/F +IMP (T1R1/T1R3 receptor; +IMP (0.2 mM), Table 18)	EC50 (T1R1/T1R3 receptor; [2]) [µM]	EC50 (T1R1/T1R3 receptor; [3]) [µM]	EC50 (T1R1/T1R3 receptor; [4]) [µM]	also measured
O=c1ccn([C@H]2C[C@H](O)[C@@H](COP(O)(O)=S)O2)c(=O)[nH]1 [2′-Deoxyuridine-5′-O-monophosphorothioate]	> 30000	–	–	–	–	–	–	–	–	–	–
O=P(O)(O)OC[C@H]1O[C@@H](n2cnc3c2ncn2ccnc32)[C@H](O)[C@@H]1O [1, N6-Ethenoadenosine-5′-O-monophosphate]	–	0.010	–	–	–	–	–	–	–	–	–
O=c1[nH]cnc2c1ncn2C1CC(O)C(COP(O)(O)=S)O1 (stereo not shown) [2′-Deoxyinosine-5′-O-monophosphorothioate]	–	0.025	active	–	–	–	–	–	–	–	–
NC(=O)c1ncn(C2OC(COP(=O)(O)O)C(O)C2O)c1N [5-Aminoimidazole-4-carboxamide-1-β-D-ribofuranosyl 5′-monophosphate]	> 1000	0.200	active	–	–	–	–	–	–	–	–
Nc1nc2c(ncn2[C@H]2C[C@H](O)[C@@H](COP(O)(O)=S)O2)c(=O)[nH]1 [2′-Deoxyguanosine-5′-O-monophosphorothioate]	–	0.005	active	–	–	–	–	–	–	–	function as activators of T1R1/T1R3 (in words) (cat T1R1/T1R3 receptor; in the presence of alanine): activators of T1R1/T1R3
Nc1ncnc2c1ncn2[C@H]1C[C@H](OP(=O)(O)O)[C@@H](COP(=O)(O)O)O1 [2′-Deoxyadenosine-3′,5′-O-bisphosphate]	–	–	active	–	–	–	–	–	–	–	–
CNc1ccccc1C(=O)O[C@H]1C[C@H](n2cnc3c(N)ncnc32)O[C@@H]1COP(=O)(O)O [2′-Deoxy-3′-O-(N′-methylanthraniloyl)adenosine-5′-O-monophosphate]	–	0.0025	active	–	–	–	–	–	–	–	Max resp. (ΔF/F) (cat T1R1/T1R3 receptor): 0.3975 ΔF/F; Max. resp. % of IMP (cat T1R1/T1R3 receptor): 32.0 % of IMP
Nc1nc2c(ncn2[C@@H]2O[C@H](COP(=O)(O)OP(=O)(O)O)[C@@H](O)[C@H]2O)c(=O)[nH]1 [Guanosine 5′-diphosphate sodium salt, Guanosine 5′-diphosphate]	200	0.050	active	–	–	–	–	–	–	–	–
Nc1ncnc2c1ncn2[C@@H]1O[C@H](COP(O)(O)=S)[C@@H](O)[C@H]1O [Adenosine-5′-O-monophosphorothioate]	11	0.003	active	–	–	–	–	–	–	–	–
Nc1ncnc2c1nc(Cl)n2[C@@H]1O[C@H](COP(=O)(O)O)C(O)C1O (stereo partly shown) [8-Chloroadenosine-5′-O-monophosphate]	–	0.2	–	–	–	–	–	–	–	–	Max resp. (ΔF/F) (cat T1R1/T1R3 receptor): 0.79 ΔF/F; Max. resp. % of IMP (cat T1R1/T1R3 receptor): 63.6 % of IMP; Activity (cat T1R1/T1R3 receptor; +Alanine (20 mM)): active
Nc1nc2c(ncn2[C@H]2O[C@@H](COP(=O)(O)O)[C@H](O)[C@@H]2O)c(=O)[nH]1 (stereo in doubt) [guanosine monophosphate, reference compound]	30	0.008	active	–	–	–	–	–	–	–	–
O=C(Nc1ccccc1Br)N[C@@H]1c2ccccc2C[C@@H]1O (stereo in doubt) [1-(2-bromophenyl)-3-((1R,2S)-2-hydroxy-2,3-dihydro-1H-inden-1-yl)urea]	–	–	–	44.9 % of ALa	3	44.9 % of Ala	0.378	> 3000	> 3000	> 3000	Thres +Alanine (T1R1/T1R3 receptor; + Alanine (20 nM), Table 17): 3 mM; Max resp % of IMP + Alanine (T1R1/T1R3 receptor; + Alanine, Table 17): 33.0 % of IMP; Max resp ΔF/F +Alanine (T1R1/T1R3 receptor; + Alanine, Table 17): 0.3; EC50 (T1R1/T1R3 receptor; + Alanine, Table 17, read-out: EC50 + Alanine): > 3000 µM; Max resp ΔF/F +Alanine (T1R1/T1R3 receptor; +Alanine (20 mM), Table 18): 0.3; Thres +Alanine (T1R1/T1R3 receptor; +Alanine (20 mM), Table 18): 3 mM; EC50 (T1R1/T1R3 receptor; [1]): > 3000 µM; EC50 (T1R1/T1R3 receptor; [5]): > 3000 µM; EC50 (T1R1/T1R3 receptor; [6]): > 3000 µM
CCCC(C)NC(=O)c1ccc(OC)c(C)c1 (stereo not shown) [4-methoxy-3-methyl-N-(pentan-2-yl)benzamide]	–	–	–	128.9 % of ALa	0.025	128.9 % of Ala	1.5875	100	30	100	Thres +Alanine (T1R1/T1R3 receptor; + Alanine (20 nM), Table 17): 0.050 mM; Max resp % of IMP + Alanine (T1R1/T1R3 receptor; + Alanine, Table 17): 126.0 % of IMP; Max resp ΔF/F +Alanine (T1R1/T1R3 receptor; + Alanine, Table 17): 1.5650; Max resp ΔF/F +Alanine (T1R1/T1R3 receptor; +Alanine (20 mM), Table 18): 1.5650; Thres +Alanine (T1R1/T1R3 receptor; +Alanine (20 mM), Table 18): 0.050 mM; EC50 (T1R1/T1R3 receptor; [1]): 200 µM; EC50 (T1R1/T1R3 receptor; [5]): 400 µM; EC50 (T1R1/T1R3 receptor; [6]): 400 µM; EC50 (T1R1/T1R3 receptor; read-out: EC50 + Alanine): 200 µM
COc1cc(C(=O)NC(C(N)=O)c2ccccc2)cc(Cl)c1OC (stereo not shown) [N-(2-amino-2-oxo-1-phenylethyl)-3-chloro-4,5-dimethoxybenzamide]	–	–	–	49.4 % of ALa	0.17	49.4 % of Ala	0.415	680	750	680	activation of T1R1/T1R3 by the compound alone (in words) (T1R1/T1R3 receptor; compound alone): failed to activate T1R1/T1R3 alone
COC(=O)C(NC(=O)/C=C/c1cccs1)C(C)C (stereo not shown) [(E)-methyl 3-methyl-2-(3-(thiophen-2-yl)acrylamido)butanoate]	–	–	–	59.9 % of ALa	1	59.9 % of Ala	0.7375	> 10000	> 10000	> 10000	Thres +Alanine (T1R1/T1R3 receptor; + Alanine (20 nM), Table 17): 10 mM; Max resp % of IMP + Alanine (T1R1/T1R3 receptor; + Alanine, Table 17): 9.5 % of IMP; Max resp ΔF/F +Alanine (T1R1/T1R3 receptor; + Alanine, Table 17): 0.1175; Max resp ΔF/F +Alanine (T1R1/T1R3 receptor; +Alanine (20 mM), Table 18): 0.1175; Thres +Alanine (T1R1/T1R3 receptor; +Alanine (20 mM), Table 18): 10 mM
CCC(CC)NC(=O)/C=C/c1ccc(OC)cc1 [(E)-3-(4-methoxyphenyl)-N-(pentan-3-yl)acrylamide]	–	–	–	171.7 % of ALa	0.0375	171.7 % of Ala	1.443	150	80	150	EC50 (T1R1/T1R3 receptor): 80 ± 10 µM; Thres +Alanine (T1R1/T1R3 receptor; + Alanine (20 nM), Table 17): 0.148 mM; Max resp % of IMP + Alanine (T1R1/T1R3 receptor; + Alanine, Table 17): 64.1 % of IMP; Max resp ΔF/F +Alanine (T1R1/T1R3 receptor; + Alanine, Table 17): 0.7; Max resp ΔF/F +Alanine (T1R1/T1R3 receptor; +Alanine (20 mM), Table 18): 0.7; Thres +Alanine (T1R1/T1R3 receptor; +Alanine (20 mM), Table 18): 0.148 mM; EC50 (T1R1/T1R3 receptor; [1]): 590 µM; EC50 (T1R1/T1R3 receptor; EC50 + Alanine + IMP, + Alanine (20 mM) + IMP (0.2 mM), Table 17): 80 µM; EC50 (T1R1/T1R3 receptor; EC50 - with IMP (0.2 mM), with 0.2 mM IMP): 150 ± 20 µM; EC50 (T1R1/T1R3 receptor; alone in buffer, read-out: EC50 - alone): 450 ± 10 µM; EC50 (T1R1/T1R3 receptor; [5]): 450 µM; EC50 (T1R1/T1R3 receptor; [6]): 450 µM; EC50 (T1R1/T1R3 receptor; read-out: EC50 + Alanine): 590 µM
